The subject of one assay is CT26 cells. The assay is described as follows: Anti-tumor vaccination assay, CT26 cells in BALB/c mice. The conditions noted are these: 8 Gy + 10 μM compound 24 h. It is filed as in vivo, mouse. The method, then:
(§1) FIG. 5. Identification of cannibalism modulators as immunogenic cell death inducers. MCA205 (A) or CT26 (E, I, M, Q) cells were treated with the indicated drugs. After 24 h of coculture with the indicated treatment, cell death was monitored by staining DiOC6(3) and PI, and the percentage of dying (DiOC6(3)^low PI^−, open bars) and dead (DiOC6(3)^low PI^+, closed bars) cells was determined by cytofluorometry. (B-D) MCA205 cells or (F-H, J-L, N-P, R-T) CT26 cells cocultured after x irradiation with the indicated compounds were inoculated subcutaneously into the right flank of […] or BALB/c mice, respectively. Seven days later, the mice were rechallenged with live cells injected into the opposite flank, and tumor growth was monitored (five mice per group).
FIG. 6. Tumor vaccination experiments. CT26 cells were treated for 24 hours with 10 μM VP331 (A, F, K), 10 μM Minaprine (B, G, L), 10 μM Lopa87 (C, H, M), 10 μM SG6163F (D, I, N), 10 μM Azaguanine-8 (8-aza) (E, J, O) alone or combined with 8 Gy ionizing radiation and inoculated (s.c.) into immunocompetent BALB/c mice, which were rechallenged at the opposite flank 7 days later with the same cancer cells. The percentage of tumor-free mice was evaluated three times a week for the following 38 days. Percentage of total tumor free mice (A-E), tumor free-mice at the first injection site (F to J, P) or at the second injection site (K to O, Q) are shown. (*P<0.05, **P<0.01, ***P<0.001, two-way ANOVA).
The combination of IRCCE with IR induces efficient antitumor immunity. Considering that immunogenic cell death (ICD) inducers were identified (such as Digoxin, Digitoxin, Lanatoside C or Doxorubicin hydrochloride)^3, 4, 48-51) as IRCCE, the ability of these compounds to induce an antitumor immunity after radiotherapy was evaluated. First, a preclinical approaches was developed to study the immunological effects of IRCCE on two mouse models of carcinoma (colon CT26 carcinoma and fibrosarcoma MCA205). Initially, the ability of the combination of IRCCE+IR to trigger a specific anti-tumor immune response was appreciated using immunocompetent mice through anti-tumor vaccination assays. According to previously published studies^52, the injection of cancer cells succumbing to an immunogenic cell death (ICD) into immunocompetent mice must elicit a protective immune response that is specific for tumor antigens. Thus, 3×10^5 MCA205 cells were first treated with 10 μM of SG6163F for 24 hours. Then, treated cells were inoculated subcutaneously in 200 μl PBS into the lower flank of 8-week-old female C57BL/6 mice. One week later, 3×10^4 untreated control cells were inoculated into the contralateral flank of mice. Tumors were evaluated weekly using a common caliper. Animals bearing tumors that exceeded 20-25% body mass were euthanatized. […] Then, 3×10^6 CT26 cells were irradiated with 8 Gy in presence of 10 μM of SG6163F (FIGS. 5E and 5F), VP331 (FIGS. 5I and 5J), Minaprine dihydrochloride (FIGS. 5M and 5N) or LOPA87 (FIGS. 5Q and 5R) for 24 hours. Then, cells were inoculated as previously described subcutaneously in […] into the lower flank of 8-week-old female BALB/c mice. One week later, 5×10^5 untreated control cells were inoculated into the contralateral flank of mice and tumors were evaluated weekly using a common caliper. As previously mentioned, animals bearing tumors that exceeded 20-25% body mass were euthanatized. The percentage of dying cells in each condition was evaluated by determining with DiOC(6)3/IP staining (FIGS. 5E, 5I, 5M and 5Q). Finally, the ability of these compounds to repress the growth of cancer cells that have been injected 7 days after injection of irradiated and treated cancer cells was appreciated.
A second anti-tumor vaccination assay was done on CT26 mouse models of carcinoma as previously described. […]

The subject of assay [1] is MCA205 cells. Description: Anti-tumor vaccination assay, MCA205 cells in C57BL/6 mice. The assay is classed as in vivo, mouse. As to conditions: rechallenge one week later. The procedure:
as §1
(§2) The combination of IRCCE with IR induces efficient antitumor immunity. Considering that immunogenic cell death (ICD) inducers were identified (such as Digoxin, Digitoxin, Lanatoside C or Doxorubicin hydrochloride)^3, 4, 48-51) as IRCCE, the ability of these compounds to induce an antitumor immunity after radiotherapy was evaluated. […] Tumors were evaluated weekly using a common caliper. […] One week later, 5×10^5 untreated control cells were inoculated into the contralateral flank of mice and tumors were evaluated weekly using a common caliper. […]

Assay [2] deals with MCA205 cells. Description: Cell death of treated MCA205 cells (DiOC6(3)/PI cytofluorometry). It is filed as cell-based, mouse. As to conditions: 10 μM compound alone, 24 h. The procedure:
as §1, §2

The next assay deals with HCT116 cells. Description: Screening of chemical libraries for IR-mediated cellular cannibalism (imaging flow cytometry, confocal validation). The assay is classed as cell-based, human. The conditions noted are these: 8 Gy irradiated HCT116 cells, 10 μM compound, 24 h culture. The procedure: FIG. 4 Identification of cannibalism modulators triggered by ionizing radiation. Compounds from the Prestwick (A) and CEA (F) libraries were tested for their capacities to induce cellular cannibalism after ionizing radiation. Cannibal cells were detected after homotypic cultures of 8 gray γ-irradiation HCT116 cells in the presence or absence of 10 μM of the Prestwick (A) and CEA […] library compounds. Each dot represents one compound. Representative images are shown in (B, G). (C, H) HCT116 cells were treated with the indicated drugs. After 24 h of treatment, cell death was monitored by staining with 3,3 dihexyloxacarbocyanine iodide (DiOC6(3)) and PI^+, and the percentage of dying (DiOC6(3)^low PI^−, open bars) and dead (DiOC6(3)^low PI^+, closed bars) cells was determined by cytofluorometry. Validation of the cannibalism inducers by fluorescent microscopy. Representative images (D, I) and quantification (E, J) are shown. Results are means s.e.m. of triplicate determinations.
Untreated HCT116 cells were labeled with CMFDA (green fluorescence, CMFDA^+) or CMTMR, (red fluorescence, CMTMR) and treated HCT116 cells with CMFDA (green fluorescence, CMFDA^+). The following cell mixtures were performed: untreated CMTMR^+ HCT116 cells were mixed with untreated CMFDA^+ HCT116 cells, or untreated CMTMR^+ HCT116 cells were mixed with treated CMFDA^+ HCT116 cells. Then, cells were co-cultured during 24 hours in the presence or absence of the pharmacological inhibitor of ROCK, Y27632 (30 μM), the pan-caspase inhibitor, Z-VAD-fmk (ZVAD, 100 μM), the inhibitor of caspase-1, Ac-YVAD-cmk (YVAD, 100 μM), the necroptosis inhibitor, Necrostatin-1 (NEC1, 30 μM), the inhibitor of the vacuolar type H(+)-ATPase (V-ATPase) inhibiting autophagy, Bafilomycin A1 (BafA1, 50 nM), the inhibitor of Cdks with an anti-mitotic activity, Roscovitine (Rosco, 10 μM). After 24 hours of co-culture, both detached and adherent cells were collected and stained with Hoechst […] (10 μg/mL) during 1 hour at 37° C. in warmed complete medium. To detect phosphatidylserine (PS) exposure and plasma membrane permeability, labeled HCT116 cells were successively incubated with Biotin-AnnexinV (BD Pharmingen) as recommended by manufacturer, […] BV786-Streptavidin (BD Biosciences) and 3 μM DRAQ7 (BioStatus) during 15 minutes at 25° C. After washing with PBS solution, samples were immediately analyzed using an imaging flow cytometer FlowSight® (Amnis®, part of EMD Millipore). Data were acquired at a 20× magnification, using INSPIRE software. The 405 nm, 488 nm, and 561 nm lasers were used for excitation. Brightfield, Annexin V-BV786, DRAQ7, CMFDA, CMTMR and Hoechst […] stainings were detected using respectively channels for 420-480 nm, 745-800 nm, 642-745 nm, 480-560 nm, 595-642 nm and 430-505 nm. At least 1000 events of cells per sample were analyzed. Additional single-labeled controls were prepared to normalize fluorescent signal across different channels. Acquired data were analyzed using the IDEAS analysis software (v6.1; Merck-Millipore). Gating strategy was the following. Cells were gated for focused cells using the Gradient RMS feature. Cells were gated for single cells using the aspect ratio and area features. For the cannibalism detection, cells were gated in the double positive CMFDA^+ and CMTMR^+ staining.
To detect PS exposure, plasma membrane permeability and cell cycle progression, cells were after co-culture sequentially labeled with specific fluorescent probes (such as FITC-conjugated AnnexinV, propidium iodide, and Hoechst 33342) and analyzed by flow cytometry. Both detached and adherent cells were collected and stained with Hoechst […] (10 μg/ml) during 1 hour at 37° C. in warmed complete medium. After washing with PBS, HCT116 cells were suspended in 1× binding buffer supplemented with fluorescein isothiocyanate (FITC)-conjugated Annexin V (BD Biosciences) and propidium iodide (PI, 1 μg/mL) (Sigma), as per manufacturer's instructions. […]
A general note: In flow cytometry, cells or beads pass a laser one at a time.

This is an account of results in US11517575B2, “Use of minaprine to reduce tumor growth” (Institut Gustave-Roussy, priority 2019, dated 2022).

For `O=C1NC(c2ccccc2)=N/C1=C\c1cc2ccccc2c2ccccc12` [SG6163F], the “frequency of mice showing a protective response” value in the assay with CT26 cells (first assay: CT26 cells, rechallenge one week later) is recorded as “significant increase in the frequency of mice showing a protective response”; with CT26 cells (second assay: CT26 cells, rechallenge 7 days later), “Significant increases in the frequency of mice showing a protective response”. For the same compound, in the assay on MCA205 cells [1] (MCA205 cells treated with 10 μM compound alone, s.c. in C57BL/6 mice), the “protective response after inoculation of untreated cells” value is on record as “did not exhibit a protective response”. For the same compound, in the assay on MCA205 cells [1] (MCA205 cells treated with 8 Gy of IR and 10 μM compound, C57BL/6 mice), the “mice with protective response” value is listed as 3 of 5. Further, the “increase of cell death in vitro” value in the assay with MCA205 cells [2] is given as “not able to induce a significant increase of cell death”. Further, the “enhancement of IR-mediated cellular cannibalism” value in the assay on HCT116 cells is “efficient cellular cannibalism enhancer”.
